Values after ≈ are worked out from the molar mass of the structure shown. Active and inactive are the calls of the source. No cut-off for these calls is given here.
Key:
[1] = test system: Bacillus subtilis; assay: Antibacterial activity against Bacillus subtilis after 18 hrs by broth dilution method; format: functional
[2] = test system: Mycobacterium tuberculosis; assay: Antitubercular activity against Mycobacterium tuberculosis H37Ra ATCC 25177 at 30 ug/ml incubated for 40 mins by XTT Reduction Menadione Assay; format: functional; conditions: H37Ra ATCC 25177, 40 min, read-out: GI
[3] = test system: Mycobacterium tuberculosis; assay: Antitubercular activity against Mycobacterium tuberculosis H37Ra ATCC 25177 at 3 ug/ml incubated for 40 mins by XTT Reduction Menadione Assay; format: functional; conditions: H37Ra ATCC 25177, 40 min, read-out: GI
[4] = test system: Candida albicans; assay: Antifungal activity against Candida albicans NCIM 3471 after 48 hrs by agar cup plate method; format: functional; conditions: NCIM 3471, 48 h
[5] = test system: Mycobacterium tuberculosis; assay: Antitubercular activity against Mycobacterium tuberculosis H37Ra ATCC 25177 incubated for 40 mins by XTT Reduction Menadione Assay; format: functional; conditions: H37Ra ATCC 25177, 40 min
[6] = test system: Pseudomonas fluorescens; assay: Antibacterial activity against Pseudomonas fluorescens after 18 hrs by broth dilution method; format: functional
[7] = test system: Cryptococcus neoformans; assay: Antifungal activity against Cryptococcus neoformans NCIM 576 up to 200 ug/ml after 48 hrs by agar cup plate method; format: functional, organism-based
[8] = test system: Mycobacterium bovis BCG str. ATCC 35743; assay: Antitubercular activity against dormant Mycobacterium bovis BCG ATCC 35743 at 3 ug/ml incubated for 40 mins by XTT Reduction Menadione Assay; format: functional
[9] = test system: Mycobacterium bovis BCG str. ATCC 35743; assay: Antitubercular activity against dormant Mycobacterium bovis BCG ATCC 35743 at 30 ug/ml incubated for 40 mins by XTT Reduction Menadione Assay; format: functional
[10] = test system: Escherichia coli; assay: Antibacterial activity against Escherichia coli after 18 hrs by broth dilution method; format: functional
[11] = test system: Aspergillus flavus; assay: Antifungal activity against Aspergillus flavus NCIM 539 after 48 hrs by agar cup plate method; format: functional; conditions: NCIM 539, 48 h
[12] = test system: Mycobacterium bovis BCG str. ATCC 35743; assay: Antitubercular activity against dormant Mycobacterium bovis BCG ATCC 35743 at 10 ug/ml incubated for 40 mins by XTT Reduction Menadione Assay; format: functional
[13] = test system: Aspergillus niger; assay: Antifungal activity against Aspergillus niger NCIM 1196 after 48 hrs by agar cup plate method; format: functional; conditions: NCIM 1196, 48 h
[14] = test system: Staphylococcus aureus; assay: Antibacterial activity against Staphylococcus aureus after 18 hrs by broth dilution method; format: functional
[15] = test system: Fusarium oxysporum; assay: Antifungal activity against Fusarium oxysporum NCIM 1332 after 48 hrs by agar cup plate method; format: functional; conditions: NCIM 1332, 48 h
[16] = Antitubercular activity against Mycobacterium bovis BCG ATCC 35743 incubated for 40 mins by XTT Reduction Menadione Assay; format: functional, Mycobacterium bovis BCG str. ATCC 35743; conditions: Mycobacterium tuberculosis variant bovis BCG, ATCC 35743, 40 min
[17] = test system: Mycobacterium tuberculosis; assay: Antitubercular activity against Mycobacterium tuberculosis H37Ra ATCC 25177 at 10 ug/ml incubated for 40 mins by XTT Reduction Menadione Assay; format: functional; conditions: H37Ra ATCC 25177, 40 min, read-out: GI
[18] = Selectivity index, ratio of GI50 for human PANC1 cells to MIC for Mycobacterium tuberculosis H37Ra ATCC 25177; format: toxicity, cell-based, PANC-1; conditions: read-out: Selectivity Index
[19] = Selectivity index, ratio of GI50 for human THP1 cells to MIC for Mycobacterium bovis BCG ATCC 35743; format: toxicity, cell-based, THP-1; conditions: read-out: Selectivity Index
[20] = (§1) Cytotoxicity against human A549 cells after 48 hrs by MTT assay; format: cell-based; conditions: A549 cells
[21] = test system: A549; assay: as §1; format: cell-based; conditions: a549, 48 h
[22] = Selectivity index, ratio of GI50 for human PANC1 cells to MIC for Mycobacterium bovis BCG ATCC 35743; format: toxicity, cell-based, PANC-1; conditions: read-out: Selectivity Index
[23] = test system: HeLa; assay: (§2) Cytotoxicity against human HeLa cells after 48 hrs by MTT assay; format: cell-based; conditions: hela, 48 h
[24] = as §2; format: cell-based; conditions: HeLa cells
[25] = Cytotoxicity against human PANC1 cells after 48 hrs by MTT assay; format: cell-based, PANC-1
[26] = test system: Fusarium oxysporum; assay: Antifungal activity against Fusarium oxysporum NCIM 1332 up to 200 ug/ml after 48 hrs by agar cup plate method; format: functional, organism-based
[27] = Cytotoxicity against human THP1 cells after 48 hrs by MTT assay; format: cell-based, THP-1
[28] = Selectivity index, ratio of GI50 for human HeLa cells to MIC for Mycobacterium tuberculosis H37Ra ATCC 25177; format: toxicity, cell-based; conditions: read-out: Selectivity Index
[29] = Selectivity index, ratio of GI50 for human THP1 cells to MIC for Mycobacterium tuberculosis H37Ra ATCC 25177; format: toxicity, cell-based, THP-1; conditions: read-out: Selectivity Index
[30] = test system: Mycobacterium tuberculosis; assay: Antitubercular activity against active Mycobacterium tuberculosis H37Ra ATCC 25177 incubated for 40 mins by XTT Reduction Menadione Assay; format: functional; conditions: H37Ra ATCC 25177, 40 min
[31] = Selectivity index, ratio of GI50 for human A549 cells to MIC for Mycobacterium bovis BCG ATCC 35743; format: toxicity, cell-based; conditions: read-out: Selectivity Index
[32] = test system: Mycobacterium tuberculosis; assay: Antitubercular activity against dormant Mycobacterium tuberculosis H37Ra ATCC 25177 incubated for 40 mins by XTT Reduction Menadione Assay; format: functional; conditions: H37Ra ATCC 25177, 40 min
[33] = Selectivity index, ratio of GI50 for human A549 cells to MIC for Mycobacterium tuberculosis H37Ra ATCC 25177; format: toxicity, cell-based; conditions: read-out: Selectivity Index
[34] = test system: Cryptococcus neoformans; assay: Antifungal activity against Cryptococcus neoformans NCIM 576 after 48 hrs by agar cup plate method; format: functional; conditions: NCIM 576, 48 h
[35] = Selectivity index, ratio of GI50 for human HeLa cells to MIC for Mycobacterium bovis BCG ATCC 35743; format: toxicity, cell-based; conditions: read-out: Selectivity Index

SMILES	MIC [1] [µg/mL]	inhibition of growth at 30 µg/mL [2] [%]	inhibition of growth at 3 µg/mL [3] [%]	MIC [4] [µg/mL]	MIC [5] [µg/mL]	MIC [6] [µg/mL]	MIC [7]	growth inhibition (GI) [8] [%]	growth inhibition (GI) [9] [%]	MIC [10] [µg/mL]	MIC [11] [µg/mL]	growth inhibition (GI) [12] [%]	MIC [13] [µg/mL]	MIC [14] [µg/mL]	MIC [15] [µg/mL]	MIC [16] [µg/mL]	inhibition of growth at 10 µg/mL [17] [%]	MIC [26]	MIC [34] [µg/mL]	also measured
COc1ccc2cc(/C=C3\SC(=S)NC3=O)c3nnnn3c2c1	246 (≈ 716 µM)	14.1	1.97	150 (≈ 437 µM)	> 250	157 (≈ 457 µM)	inactive	-3.47	3.63	102 (≈ 298 µM)	100 (≈ 291 µM)	-1.87	25 (≈ 72.8 µM)	247 (≈ 721 µM)	100 (≈ 291 µM)	> 250	15.6	–	–	–
COc1ccc2c(c1)cc(/C=C1\SC(=S)N(CCC(=O)O)C1=O)c1nnnn12	–	15.9	-0.42	150 (≈ 361 µM)	> 250	–	inactive	8.94	23.9	–	150 (≈ 361 µM)	16	150 (≈ 361 µM)	–	125 (≈ 301 µM)	> 250	27.9	–	–	–
COc1ccc2cc(/C=C3\SC(=S)N(CC(=O)O)C3=O)c3nnnn3c2c1	–	97.2	3.59	100 (≈ 249 µM)	92.3 (≈ 230 µM)	–	–	12.7	25.6	–	150 (≈ 374 µM)	37.3	150 (≈ 374 µM)	–	–	121 (≈ 302 µM)	13.6	inactive	175 (≈ 436 µM)	selectivity ratio [18]: 1.1; selectivity ratio [19]: 4.13; GI50 at 48 h [20]: > 100 µg/mL; GI90 [21]: > 100 µg/mL; selectivity ratio [22]: 4.13; GI90 [23]: > 100 µg/mL; GI50 at 48 h [24]: > 100 µg/mL; GI50 at 48 h ([25]; PANC1 cells): > 100 µg/mL; GI90 ([25]; panc-1, 48 h): > 100 µg/mL; GI50 at 48 h ([27]; THP1 cells): > 100 µg/mL; GI90 ([27]; thp-1, 48 h): > 100 µg/mL; selectivity ratio [28]: 1.1; selectivity ratio [29]: 1.1; IC90 [30]: 159 µg/mL (≈ 396 µM); selectivity ratio [31]: 4.13; IC90 [32]: 92.3 µg/mL (≈ 230 µM); selectivity ratio [33]: 1.1; selectivity ratio [35]: 4.13
COc1ccc2c(c1)cc(/C=C1\SC(=S)NC1=O)c1nnnn12	96.8 (≈ 282 µM)	-5.72	18.9	150 (≈ 437 µM)	> 250	169 (≈ 493 µM)	–	12.5	32.5	198 (≈ 577 µM)	150 (≈ 437 µM)	17.1	100 (≈ 291 µM)	144 (≈ 419 µM)	–	> 250	17.6	inactive	150 (≈ 437 µM)	–
